Assay results from patent US11203594B2, “Anti-proliferative agents for treating PAH” (Pfizer Inc., priority 2019, dated 2021).

Key:
Format in all cases: biochemical
[1] = target: CDK6/Cyclin D1 (Homo sapiens (Human), UniProt Q00534); test: CDK6/Cyclin D1 Mobility Shift Assay (MSA), Ki by Morrison equation; conditions: geometric mean, tested in CDK6/D1 Ki assay using MSA
Text: CDK6/Cyclin D1 Mobility Shift Assay (MSA)
The purpose of the CDK6/Cyclin D1 assay is to evaluate the inhibition (% inhibition, Kiapp and Ki values) in the presence of small molecule inhibitors by using a fluorescence based microfluidic mobility shift assay. CDK6/Cyclin D1 catalyzes the production of ADP from ATP that accompanies the phosphoryl transfer to the substrate peptide 5-FAM-Dyrktide The mobility shift assay electrophoretically separates the fluorescently labeled peptides (substrate and phosphorylated product) following the kinase reaction. Both substrate and product are measured and the ratio of these values is used to generate % conversion of substrate to product by the LabChip EZ Reader. Typical reaction solutions contained 2% DMSO (±inhibitor), 2% glycerol, 10 mM MgCl2, 1 mM DTT, 3.5 mM ATP, 0.005% Tween 20 (TW-20), 3 μM 5-FAM-Dyrktide, 4 nM activated CDK6/Cyclin D1 in 40 mM HEPES buffer at pH 7.5. […]
For all the CDK4 and CDK6 assays the Ki constant for compounds were calculated for each enzyme using the Morrison equation. Fractional activity was measured at different compound concentrations, [I] and the data fit to the Morrison equation where [E] is the enzyme concentration, [S] is the ATP concentration, and Kn^App is the apparent Km for ATP for each enzyme under each assay format. […]

[2] = target: CDK4/Cyclin D1 (Homo sapiens (Human), UniProt P11802); test: CDK4/Cyclin D1 CHEF assay (Chelation-Enhanced Fluorescence), Ki by Morrison equation; conditions: geometric mean; tested in CHEF Assay; read-out: CDK4/Cyclin D1 GMean Ki
Chain of CDK4/Cyclin D1 (P11802 whole entry): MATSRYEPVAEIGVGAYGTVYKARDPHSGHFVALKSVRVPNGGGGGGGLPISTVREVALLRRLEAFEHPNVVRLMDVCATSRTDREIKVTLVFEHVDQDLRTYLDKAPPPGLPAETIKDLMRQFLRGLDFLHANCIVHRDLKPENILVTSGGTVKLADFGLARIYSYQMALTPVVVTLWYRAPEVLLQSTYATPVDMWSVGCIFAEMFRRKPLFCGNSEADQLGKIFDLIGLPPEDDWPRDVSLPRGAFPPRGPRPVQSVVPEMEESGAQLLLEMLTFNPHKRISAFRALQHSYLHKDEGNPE
Chain of CDK4/Cyclin D1 (P24385 whole entry partner): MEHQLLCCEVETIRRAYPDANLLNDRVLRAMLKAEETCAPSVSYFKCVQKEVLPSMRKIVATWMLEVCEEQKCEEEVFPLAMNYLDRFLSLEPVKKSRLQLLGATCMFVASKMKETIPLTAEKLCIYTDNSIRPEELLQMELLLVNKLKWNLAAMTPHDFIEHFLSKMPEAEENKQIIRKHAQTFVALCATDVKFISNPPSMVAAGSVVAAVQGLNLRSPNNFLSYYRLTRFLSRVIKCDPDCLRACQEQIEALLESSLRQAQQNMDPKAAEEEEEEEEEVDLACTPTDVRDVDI
Text: (§1) In Vitro Purified Enzyme Assays to Determine Potency for CDKs
(§2) CDK4/Cyclin D1 and CDK6/Cylcin D3 CHEF Assay
(§3) The Chelation-Enhanced Fluorescence (CHEF) monitors the phosphorylation state in real time where the level of fluorescence is directly proportional to the amount of phosphorylated substrate. CHEF exploits a synthetic α-amino acid with a side chain bearing an 8-hydroxyquinoline derivative (sulfonamido-oxine, Sox) which, upon coordination to Mg(II), relays information on the phosphorylation state of a proximal serine, threonine or tyrosine residue in peptide-based kinase substrates. Phosphorylation of a specific peptide (Catalog # AQT0258) from AssayQuant Technologies results in an increase in fluorescence at the excitation and emission wavelengths of 360 nm Ex/485 nm Em.
(§4) Examples along with DMSO (negative) and Palbociclib (positive) controls were added to 384-well plates at 100-fold their final concentrations followed by the addition of 10 nM CDK4/Cyclin D1 (LJIC-2007F1) or 10 nM CDK6/Cyclin D3 (LJIC-2009H2) for a 20 minute pre-incubation in assay buffer containing 40 mM HEPES, 1 mM Dithiothreito (DTT, 10 mM MgCl2, 1% Glycerol, 0.1% BSA. Enzyme reactions were initiated by the addition of AssayQuant Technologies peptide and ATP substrates (10 μM CHEF peptide (Catalog # AQT0258), 2 mM ATP) and allowed to proceed for 2 hours followed by fluorescence read of the reaction. Ki determinations were made from a plot of the fractional velocity as a function of inhibitor concentration fit to the Morrison equation with the enzyme concentration as a variable.
(§5) For all the CDK4 and CDK6 assays the Ki constant for compounds were calculated for each enzyme using the Morrison equation. Fractional activity was measured at different compound concentrations, [I] and the data fit to the Morrison equation where [E] is the enzyme concentration, [S] is the ATP concentration, and Kn^App is the apparent Km for ATP for each enzyme under each assay format. With the Ki calculations dependent on the assay conditions for each assay format the resulting Ki becomes assay independent with a strong one to one correlation of Ki values for compounds tested in both assay formats.
(§6) In Table 2, assay data are presented to two (2) significant figures as the geometric mean (Ki) based on the number of replicates listed (Number). A cell having NA means there was no data for that Example in the indicated assay.

[3] = target: CDK6/Cyclin D3 (Homo sapiens (Human), UniProt Q00534); test: CDK6/Cyclin D3 CHEF assay (Chelation-Enhanced Fluorescence), Ki by Morrison equation; conditions: geometric mean; tested in CHEF Assay; read-out: CDK6/Cyclin D3: GMean Ki
Chain of CDK6/Cyclin D3 (Q00534 whole entry): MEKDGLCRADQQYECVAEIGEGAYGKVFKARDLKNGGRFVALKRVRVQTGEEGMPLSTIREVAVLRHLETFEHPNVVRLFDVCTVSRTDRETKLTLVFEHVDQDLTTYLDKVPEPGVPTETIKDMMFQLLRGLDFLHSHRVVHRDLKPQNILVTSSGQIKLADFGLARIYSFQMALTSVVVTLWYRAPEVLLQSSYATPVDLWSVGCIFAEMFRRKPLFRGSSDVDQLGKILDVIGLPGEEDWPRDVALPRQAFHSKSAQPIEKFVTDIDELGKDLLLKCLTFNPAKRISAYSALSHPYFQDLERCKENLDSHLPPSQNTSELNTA
Chain of CDK6/Cyclin D3 (P30281 whole entry partner): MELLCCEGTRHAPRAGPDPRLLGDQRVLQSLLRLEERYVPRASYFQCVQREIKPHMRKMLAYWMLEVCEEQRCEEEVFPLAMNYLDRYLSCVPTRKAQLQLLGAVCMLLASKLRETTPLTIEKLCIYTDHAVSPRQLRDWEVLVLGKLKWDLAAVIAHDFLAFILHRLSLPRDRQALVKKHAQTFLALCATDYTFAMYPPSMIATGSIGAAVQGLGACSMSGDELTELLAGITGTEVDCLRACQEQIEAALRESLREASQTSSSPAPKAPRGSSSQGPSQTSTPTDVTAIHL
Text: as §1, §2, §3, §4, §5, §6

Chain of CDK6/Cyclin D1 (Q00534 whole entry): as the sequence (Q00534 whole entry) above
Chain of CDK6/Cyclin D1 (P24385 whole entry partner): as the sequence (P24385 whole entry partner) above

Compound | Ki ([1]; read-out: CDK6/Cyclin D3: GMean Ki (nM) (footnote c: CDK6/D1 Ki)) | Ki [2] [nM] | Ki [3] [nM] | CDK6/Cyclin D3: GMean Ki (nM) (footnote c: CDK6/D1 Ki) [1]
CC(=O)c1c(C)c2cnc(N[C@@H]3CCOC[C@H]3O)nc2n([C@@H]2CCC[C@]2(C)F)c1=O (mixture of isomers) [Example 17, 6-Acetyl-8-[(1R,2S)-2-fluoro-2-methylcyclopentyl]-2-{[(3S,4R)-3-hydroxytetrahydro-2H-pyran-4-yl]amino}-5-methylpyrido[2,3-d]pyrimidin-7(8H)-one and 6-Acetyl-8-[(1S,2R)-2-fluoro-2-methylcyclopentyl]-2-{[(3S,4R)-3-hydroxytetrahydro-2H-pyran-4-yl]amino}-5-methylpyrido[2,3-d]pyrimidin-7(8H)-one] |  |  |  | 10.5^c nM
CC(=O)c1c(C)c2cnc(N[C@@H]3CCOC[C@H]3O)nc2n([C@H]2CCC[C@]2(C)F)c1=O (single isomer, unassigned) [Example 22] | 2.8 |  |  | 
CC(=O)c1c(C)c2cnc(N[C@@H]3CCOC[C@H]3O)nc2n(C2CC(C)(C)C2)c1=O [Example 19, 6-Acetyl-8-(3,3-dimethylcyclobutyl)-2-{[(3S,4R)-3-hydroxytetrahydro-2H-pyran-4-yl]amino}-5-methylpyrido[2,3-d]pyrimidin-7(8H)-one] |  | 4.5 | 4.2 | 
CC(=O)c1c(C)c2cnc(N[C@@H]3CCOC[C@H]3O)nc2n([C@H]2CC[C@@H](O)CC2)c1=O [Example 20, 6-acetyl-8-(cis-4-hydroxycyclohexyl)-2-{[(3S,4R)-3-hydroxytetrahydro-2H-pyran-4-yl]amino}-5-methylpyrido[2,3-d]pyrimidin-7(8H)-one] |  | 54 | 58 | 
CC(=O)c1c(C)c2cnc(N[C@@H]3CCOC[C@H]3O)nc2n([C@H]2C[C@H](O)C2)c1=O [Example 21, 6-acetyl-8-(trans-3-hydroxycyclobutyl)-2-{[(3S,4R)-3-hydroxytetrahydro-2H-pyran-4-yl]amino}-5-methylpyrido[2,3-d]pyrimidin-7(8H)-one] |  | 13 | 13 | 
CC(=O)c1c(C)c2cnc(N[C@@H]3CCOC[C@H]3O)nc2n([C@H]2CC[C@H](N)CC2)c1=O [Example 24] |  | 13 | 24 | 
CC(=O)c1c(C)c2cnc(N[C@@H]3CCOC[C@H]3O)nc2n([C@H]2CC[C@H](N(C)C)CC2)c1=O [Example 25] |  | 36 | 110 | 
CC(=O)c1c(C)c2cnc(N[C@@H]3CCOC[C@H]3O)nc2n([C@H]2CCN(C)C2)c1=O [Example 26] |  | 13 | 39 | 
COCCN1CC2(CC(n3c(=O)c(C(C)=O)c(C)c4cnc(N[C@@H]5CCOC[C@H]5O)nc43)C2)C1 [Example 28] |  | 10 | 36 | 
CC(=O)c1c(C)c2cnc(N[C@@H]3CCOC[C@H]3O)nc2n(C2CC3(C2)CN(CC(F)F)C3)c1=O [Example 29, 6-acetyl-8-[2-(2,2-difluoroethyl)-2-azaspiro[3.3]heptan-6-yl]-2-{[(3S,4R)-3-hydroxytetrahydro-2H-pyran-4-yl]amino}-5-methylpyrido[2,3-d]pyrimidin-7(8H)-one] |  | 1.9 | 4.9 | 
CC(=O)c1c(C)c2cnc(N[C@@H]3CCOC[C@H]3O)nc2n([C@H]2CCOC2)c1=O [Example 31] |  | 27 | 29 | 
CC(=O)c1c(C)c2cnc(N[C@H]3CCOC[C@@H]3O)cc2n(C2CCCC2)c1=O [Example 33, 3-acetyl-1-cyclopentyl-7-{[(3R,4S)-3-hydroxytetrahydro-2H-pyran-4-yl]amino}-4-methyl-1,6-naphthyridin-2(1H)-one] |  | 62 | 130 | 

Now from value to molecule, other results behind:

Ki ([1]; read-out: CDK6/Cyclin D3: GMean Ki (nM) (footnote c: CDK6/D1 Ki)) | Ki [2] [nM] | Ki [3] [nM] | Compound | CDK6/Cyclin D3: GMean Ki (nM) (footnote c: CDK6/D1 Ki) [1]
 | 9.6 | 34 | CC(=O)c1c(C)c2cnc(N[C@@H]3CCOC[C@H]3O)nc2n([C@H]2CCNC2)c1=O [Example 18, 6-Acetyl-2-{[(3S,4R)-3-hydroxytetrahydro-2H-pyran-4-yl]amino}-5-methyl-8-[(3S)-pyrrolidin-3-yl]pyrido[2,3-d]pyrimidin-7(8H)-one] | 
 | 9.9 | 25 | CC(=O)c1c(C)c2cnc(N[C@@H]3CCOC[C@H]3O)nc2n([C@@H]2CCNC2)c1=O [Example 27] | 
 | 430 | > 570 | CC(=O)c1c(C)c2cnc(N[C@H]3CCOC[C@@H]3O)nc2n(C2CCCC2)c1=O [Example 30, 6-acetyl-8-cyclopentyl-2-{[(3R,4S)-3-hydroxytetrahydro-2H-pyran-4-yl]amino}-5-methylpyrido[2,3-d]pyrimidin-7(8H)-one] | 
 | 16 | 27 | CC(=O)c1c(C)c2cnc(N[C@@H]3CCOC[C@H]3O)nc2n(C2CCNCC2)c1=O [Example 32] | 
 | 52 | 85 | CC(=O)c1c(C)c2cnc(N[C@@H]3CCOC[C@H]3O)nc2n(C2CC2)c1=O [Example 34] | 
